One may read the IC50 as the concentration that inhibits the measured activity by half.

Data set [1] relates to MCF7. As to the kind of experiment: Antiproliferative activity against human MCF7 cells assessed as inhibition of cell proliferation incubated for 48 hrs by MTT assay. Type of data set: functional, cell-based. Particulars: MCF7, 48 h.
Data set [2] concerns B16-F10. Nature of the data set: Antiproliferative activity against mouse B16-F10 cells assessed as inhibition of cell proliferation incubated for 48 hrs by MTT assay. The class given is functional, cell-based. The conditions noted are these: B16-F10, 48 h. (Tetrazolium assays rely on reduction of a dye to a coloured formazan, in cell work by metabolically active cells.)
For data set [3], the system named is HeLa. Nature of the data set: Antiproliferative activity against human HeLa cells assessed as inhibition of cell proliferation incubated for 48 hrs by MTT assay. The class given is functional, cell-based.
In data set [4] the test system is HepG2. Nature of the data set: Antiproliferative activity against human HepG2 cells assessed as inhibition of cell proliferation incubated for 48 hrs by MTT assay. Type of data set: functional, cell-based. Particulars: HepG2, 48 h.
For data set [5], the system named is B16-F10. As to the kind of experiment: Antitumor activity against mouse B16-F10 cells implanted in C57 mouse assessed as tumor growth inhibition at 5 mg/kg, ip administered every day for 14 days relative to control. Type of data set: functional. Particulars: B16-F10, 336 h, time 14 day, read-out: TGI.
A short description of data set [6]: Antiproliferative activity against parental human A549S cells assessed as inhibition of cell proliferation incubated for 48 hrs by MTT assay. The class given is functional, cell-based.
The nature of data set [7]: Resistance index, ratio of IC50 for antiproliferative activity against paclitaxel resistant human A2780/Taxol cells to IC50 for antiproliferative activity against parental human A2780S cells. The class given is functional.
The test system of data set [8] is A2780/Taxol. As to the kind of experiment: Antiproliferative activity against paclitaxel resistant human A2780/Taxol cells assessed as inhibition of cell proliferation incubated for 48 hrs by MTT assay. Type of data set: functional, cell-based.
Data set [9] relates to A2780S. As to the kind of experiment: Antiproliferative activity against parental human A2780S cells assessed as inhibition of cell proliferation incubated for 48 hrs by MTT assay. Type of data set: functional, cell-based.
Data set [10] can be described thus: Antiproliferative activity against paclitaxel resistant human A549/TxR cells assessed as inhibition of cell proliferation incubated for 48 hrs by MTT assay. The class given is functional, cell-based.
A short description of data set [11]: Resistance index, ratio of IC50 for antiproliferative activity against paclitaxel resistant human A549/TxR cells to IC50 for antiproliferative activity against parental human A549S cells. Type of data set: functional.
Data set [12] can be described thus: Toxicity in C57 mouse implanted with mouse B16-F10 cells assessed as body weight loss at 5 mg/kg, ip administered every day for 14 days. The class given is organism-based. The conditions noted are these: in vivo, 336 h, time 14 day.
The nature of data set [13]: Toxicity in C57 mouse implanted with mouse B16-F10 cells assessed as pathological changes in liver at 5 mg/kg, ip administered every day for 14 days by H&E staining based microscopic analysis. The class given is organism-based. Particulars: in vivo, 336 h, time 14 day.
Data set [14] in a line: Toxicity in C57 mouse implanted with mouse B16-F10 cells assessed as pathological changes in kidney at 5 mg/kg, ip administered every day for 14 days by H&E staining based microscopic analysis. Type of data set: organism-based. Particulars: in vivo, 336 h, time 14 day.
Data set [15] can be described thus: Toxicity in C57 mouse implanted with mouse B16-F10 cells assessed as pathological changes in heart at 5 mg/kg, ip administered every day for 14 days by H&E staining based microscopic analysis. Type of data set: organism-based. The conditions noted are these: in vivo, 336 h, time 14 day.
In data set [16] the test system is B16-F10. As to the kind of experiment: Antitumor immunity in C57 mouse implanted with mouse B16-F10 cells assessed as increase in CD3+ CD8+ cytotoxic T cells in tumor at 5 mg/kg, ip administered every day for 14 days by flow cytometric analysis (reference value: 0.340%). Type of data set: functional. The conditions noted are these: time 14 day. (Flow cytometry measures light scatter and fluorescence of single cells or particles in a stream.)

For data set [17], the system named is B16-F10. Nature of the data set: Antitumor immunity in C57 mouse implanted with mouse B16-F10 cells assessed as increase in CD3+ CD4+ helper T cells in tumor at 5 mg/kg, ip administered every day for 14 days by flow cytometric analysis (reference value: 0.332%). Type of data set: functional. The conditions noted are these: time 14 day.

Structures are written as SMILES.

As to `COc1cc(-c2n[nH]c3ccc(-c4ccc5c(ccn5C)c4)nc23)cc(OC)c1OC`, the IC50 was 35 nM in [1], 43 nM in data set [2], 48 nM in data set [3] and 16 nM in data set [4].

Consider `Cn1ccc2c(-c3nc4c(-c5ccc6c(c5)OCCO6)nccc4[nH]3)cccc21`, for which the concentration for half-maximal inhibition (IC50) in data set [1] is 213 nM; in data set [2], 138 nM; in data set [3], 92 nM; in data set [4], 119 nM.

Regarding `COc1cc(OC)cc(-c2nccc3[nH]c(-c4cccc5c4ccn5C)nc23)c1`, the half-inhibitory concentration (IC50) in data set [1] was 260 nM; in data set [2], 310 nM; in data set [3] it was 105 nM; in [4], 238 nM.

Regarding `COc1cc(-c2nn(C(=O)OC(C)(C)C)c3cnc(-c4cccc5c4ccn5C)cc23)cc(OC)c1OC`, the IC50 in data set [1] was determined as 7660 nM; in [2], 5170 nM; in [3] it was 5930 nM; in [4], 4700 nM.

`CCn1ccc2c(-c3nc4c(-c5cc(OC)c(OC)c(OC)c5)nccc4[nH]3)cccc21`: the IC50 is 22 nM in data set [1], 18 nM in data set [2], 29 nM in data set [3] and 11 nM in [4].

For the compound `CC(=O)O[C@H]1C(=O)[C@@]2(C)[C@H]([C@H](OC(=O)c3ccccc3)[C@]3(O)C[C@H](OC(=O)[C@H](O)[C@@H](NC(=O)c4ccccc4)c4ccccc4)C(C)=C1C3(C)C)[C@]1(OC(C)=O)CO[C@@H]1C[C@@H]2O` [PACLITAXEL], the inhibition in vivo at 5 mg/kg in [5] was 70.4%. Moreover, the IC50 in data set [6] worked out at 24.9 nM; in data set [8], 2020 nM; in data set [9] it was 2.7 nM; in data set [10], 3380 nM. For the same compound, the “Ratio IC50” value was 746.5 in data set [7] and 135.9 in data set [11]. For the same compound, the Activity result in data set [12], in data set [13], in data set [14] and in [15] was “Non-Toxic” throughout.

In the case of `COc1cc(-c2n[nH]c3ccc(-c4cccc5c4ccn5C)cc23)cc(OC)c1OC`, the concentration for half-maximal inhibition (IC50) in data set [1] turned out to be 45 nM; in data set [2], 66 nM; in data set [3], 48 nM; in data set [4], 30 nM.

Turning to `CCn1ccc2cc(-c3nc4c(-c5cc(OC)c(OC)c(OC)c5)nccc4[nH]3)ccc21`, the IC50 in data set [1] came out at 317 nM; in data set [2] it was 237 nM; in [3], 195 nM; in data set [4] it was 130 nM.

Turning to `COc1cc(-c2n[nH]c3cnc(-c4ccc5c(ccn5C)c4)cc23)cc(OC)c1OC`, the IC50 was found to be 861 nM in data set [1], 1000 nM in [2], 969 nM in data set [3] and 248 nM in [4].

`COc1cc(-c2nccc3[nH]c(-c4ccc5ccn(C)c5c4)nc23)cc(OC)c1OC`: the IC50 worked out at 30 nM in data set [1], 33 nM in data set [2], 45 nM in data set [3] and 18 nM in data set [4].

In the case of `COc1cc(-c2nn(C(=O)OC(C)(C)C)c3ccc(-c4cccc5c4ccn5C)cc23)cc(OC)c1OC`, the IC50 in [1] is 350 nM; in data set [2] it was 492 nM; in data set [3], 677 nM; in data set [4], 356 nM.

Turning to `COc1cc(-c2nccc3[nH]c(-c4ccc5c(ccn5C)c4)nc23)cc(OC)c1OC`, the IC50 in data set [1] is 36 nM; in [2], 60 nM; in [3], 71 nM; in [4], 44 nM.

On to `COc1ccc(-c2ccc3[nH]nc(-c4cc(OC)c(OC)c(OC)c4)c3n2)cc1`, for which the IC50 in [1] was found to be 319 nM; in data set [2], 271 nM; in data set [3] it was 188 nM; in [4], 87 nM.

`COc1cc(-c2n[nH]c3cnc(-c4cccc5c4ccn5C)cc23)cc(OC)c1OC`: the concentration for half-maximal inhibition (IC50) in data set [1] is 135 nM; in [2], 197 nM; in data set [3], 154 nM; in data set [4], 82 nM.

Consider `COc1cc(-c2n[nH]c3ccc(-c4cccc5c4ccn5C)nc23)cc(OC)c1OC`, for which the IC50 was found to be 28 nM in data set [1], 21 nM in data set [2], 40 nM in data set [3] and 6 nM in data set [4].

As to `COc1cc(-c2n[nH]c3ccc(-c4ccccc4)nc23)cc(OC)c1OC`, the concentration for half-maximal inhibition (IC50) is 957 nM in data set [1], 683 nM in data set [2], 742 nM in data set [3] and 115 nM in [4].

For `COc1cc(-c2n[nH]c3ccc(-c4ccc(C)cc4)nc23)cc(OC)c1OC`, the IC50 in data set [1] is 58 nM; in data set [2], 32 nM; in data set [3], 92 nM; in [4] it was 19 nM.

For `COc1cc(-c2cccc3[nH]c(-c4cccc5c4ccn5C)nc23)cc(OC)c1OC`, the concentration for half-maximal inhibition (IC50) in data set [4] was determined as 15 nM.

With `COc1cc(-c2n[nH]c3ccc(-c4ccc5c(ccn5C)c4)cc23)cc(OC)c1OC`, the 50% inhibitory concentration (IC50) in data set [1] worked out at 36 nM; in data set [2] it was 98 nM; in data set [3] it was 173 nM; in data set [4] it was 49 nM.

`Cc1c(COc2cc3c(cc2Cl)CN(C(C)(C)C(=O)O)C(c2cccc(C#N)c2)O3)cccc1-c1ccccc1` (centres undefined): the Activity in data set [16] is listed as 2.27%; in data set [17], 1.43%; in data set [12], “Non-Toxic”; in data set [13], “Non-Toxic”; in [14], “Non-Toxic”; in [15] it was “Non-Toxic”. Also, the inhibition in vivo at 5 mg/kg in data set [5] was found to be 48.5%.

With `COc1cc(-c2nn(C(=O)OC(C)(C)C)c3ccc(-c4cccc5c4ccn5C)nc23)cc(OC)c1OC`, the IC50 in [1] was 277 nM; in data set [2], 386 nM; in data set [3], 581 nM; in data set [4], 210 nM.

As for `CCn1ccc2ccc(-c3nc4c(-c5cc(OC)c(OC)c(OC)c5)nccc4[nH]3)cc21`, the half-maximal inhibitory concentration (IC50) was 602 nM in [1], 631 nM in [2], 818 nM in [3] and 509 nM in data set [4].

Take `COc1ccc(-c2nccc3[nH]c(-c4cccc5c4ccn5C)nc23)cc1OC`: the IC50 in data set [1] stood at 699 nM; in data set [2] it was 199 nM; in data set [3], 453 nM; in data set [4] it was 256 nM.

Take `COc1cc2c(c(OC)c1OC)-c1ccc(OC)c(=O)cc1[C@@H](NC(C)=O)CC2` [COLCHICINE]: the IC50 in data set [6] stood at 104 nM; in data set [8], 670 nM; in [9] it was 23.2 nM; in [1], 22 nM; in data set [10] it was 677 nM.

Values taken from ChEMBL document CHEMBL5338766, “X-ray Crystal Structure-Guided Discovery of Novel Indole Analogues as Colchicine-Binding Site Tubulin Inhibitors with Immune-Potentiating and Antitumor Effects against Melanoma” (J Med Chem, 2023).
